Molecules are shown by their SMILES. Where a name gives a salt, the structure may show the parent alone. Read-outs that look alike come from different tables or passages of the source.

Type in all cases: cell-based
Assay [1] deals with CD8 T cells. The assay can be described thus: CD69 expression on aCD3/aCD28 stimulated isolated human CD8 T cells (flow cytometry). The settings on record: T-cell, 24 h after TCR stimulation, read-out: Activity Class CD69 (CD8). How it is done:
(§1) Isolated T cells were plated in Xvivo medium at 1.5*10 ^5 cells per in 96 well culture plates and TCR-stimulated with anti-CD3/28 mAbs in the presence of compound as indicated. Cytokine production was determined at 24 h or 48 h following TCR stimulation in cell culture supernatants using commercially available ELISA kits (BD and eBioscience) as recommended by the manufacturer. T cell proliferation and CD25 expression (CD25-PC5 reagent purchased from Beckman Coulter) was determined by flow cytometry (Beckman-Coulter FC500) and analysed with Kaluza Software. For measurement of CD69 expression, isolated CD4 and CD8 T cells were plated in Xvivo medium at […] per in 96 well culture plates and TCR-stimulated with anti-CD3/28 mAbs in the presence of compound. CD69 expression was determined at 24 h following TCR stimulation by flow cytometry (CD4eF450, CD8APCeF780 and CD69-PC7 reagent purchased from eBioscience) and analysed with Kaluza Software.
(§2) For measurement of CD69 expression, isolated CD4 and CD8 T cells were plated in Xvivo medium at 80000 cells per in 96 well culture plates and TCR-stimulated with anti-CD3/28 mAbs in the presence of compound. CD69 expression was determined at 24 h following TCR stimulation by flow cytometry (CD4eF450, CD8APCeF780 and CD69-PC7 reagent purchased from eBioscience) and analysed with Kaluza Software.
(In general: A flow cytometer gives signals particle by particle.)

In assay [2] the test system is aCD3/aCD28-stimulated human PBMCs. The assay can be described thus: Cytokine production in aCD3/aCD28 stimulated human PBMCs. The settings on record: PBMC, 18 h. The procedure, abridged: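 Ficoll-isolated human PBMCs at 1e6 cells/mL in X-Vivo15, stimulated with soluble anti-CD3/CD28 (OKT3 and 28.2, 1 μg/mL each) plus compound for 18 h at 37° C. Supernatant cytokines quantified by MSD or HTRF.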

Assay [3] relates to CD4 T cells. The assay can be described thus: CD69 expression on aCD3/aCD28 stimulated isolated human CD4 T cells (flow cytometry). The settings on record: 24 h after TCR stimulation, read-out: Activity Class CD69 (CD4). How it is done:
as §1, §2

The mark [4] stands for this setting: enhancement of IFN-γ production, read-out: Activity Class IFN-γ.
Setting [5] is: enhancement of IL-2 production, read-out: Activity Class IL-2.

As for `N[C@H]1CSc2cc(F)c(C(=O)NC3CC(F)(F)C3)cc2N(Cc2ccc(Cl)cc2)C1=O` [Example 128, (3R)-3-amino-5-[(4-chlorophenyl)methyl]-N-(3,3-difluorocyclobutyl)-8-fluoro-4-oxo-2,3,4,5-tetrahydro-1,5-benzothiazepine-7-carboxamide hydrochloride], the EC50 in assay [1] is 1580 to 5010 nM; in assay [2] (setting [4]), 1580 to 5010 nM; in assay [2] (setting [5]) it was 1580 to 5010 nM; in assay [3], above 5010 nM.

Turning to `COc1ccc(CNC(=O)c2ccc3c(c2)N(Cc2ccc(Cl)cc2)C(=O)[C@@H](N)CS3(=O)=O)cc1` [Example 153, (3R)-3-amino-5-[(4-chlorophenyl)methyl]-N-[(4-methoxyphenyl)methyl]-1,1,4-trioxo-2,3,4,5-tetrahydro-1λ^6,5-benzothiazepine-7-carboxamide], the EC50 in assay [1], in assay [2] (setting [4]), in assay [2] (setting [5]) and in assay [3] was below 1580 nM throughout.

For the compound `N[C@H]1CS(=O)(=O)c2ccc(C(=O)N[C@@H]3CCC(F)(F)C3)cc2N(Cc2ccc(Cl)cc2)C1=O` [Example 169, (3R)-3-amino-5-[(4-chlorophenyl)methyl]-N-[(1R)-3,3-difluorocyclopentyl]-1,1,4-trioxo-2,3,4,5-tetrahydro-1λ^6,5-benzothiazepine-7-carboxamide], the EC50 in assay [1], in assay [2] (setting [4]), in assay [2] (setting [5]) and in assay [3] was below 1580 nM each time.

Regarding `Cl.N[C@H]1CS(=O)(=O)c2cc(F)c(C(=O)N[C@H]3CC3(F)F)cc2N(Cc2ccc(Cl)cc2)C1=O` (single isomer, unassigned) [Example 107, hydrochloride], the EC50 in assay [1], in assay [2] (setting [4]), in assay [2] (setting [5]) and in assay [3] was below 1580 nM each time.

`N[C@H]1CS(=O)(=O)c2cc(F)c(C(=O)NC3CCC(F)(F)CC3)cc2N(Cc2ccc(Cl)cc2)C1=O` [Example 126, (3R)-3-amino-5-[(4-chlorophenyl)methyl]-N-(4,4-difluorocyclohexyl)-8-fluoro-1,1,4-trioxo-2,3,4,5-tetrahydro-1λ^6,5-benzothiazepine-7-carboxamide hydrochloride]: the EC50 in assay [1], in assay [2] (setting [4]), in assay [2] (setting [5]) and in assay [3] was below 1580 nM each time.

Turning to `N[C@H]1CS(=O)(=O)c2cc(F)c(C(=O)NC3CC(F)(F)C3)cc2N(Cc2ccc(F)cc2)C1=O` [Example 140, (3R)-3-amino-N-(3,3-difluorocyclobutyl)-8-fluoro-5-[(4-fluorophenyl)methyl]-1,1,4-trioxo-2,3,4,5-tetrahydro-1λ^6,5-benzothiazepine-7-carboxamide hydrochloride], the EC50 in assay [1] is above 5010 nM; in assay [2] (setting [4]), 1580 to 5010 nM; in assay [2] (setting [5]) it was 1580 to 5010 nM; in assay [3] it was 1580 to 5010 nM.

`COc1ccc(CNC(=O)c2ccc3c(c2)N(Cc2ccc(OC)cc2)C(=O)[C@@H](N)CS3(=O)=O)cc1` [Example 151, (3R)-3-amino-N,5-bis[(4-methoxyphenyl)methyl]-1,1,4-trioxo-2,3,4,5-tetrahydro-1λ^6,5-benzothiazepine-7-carboxamide]: the EC50 in assay [1] is below 1580 nM; in assay [2] (setting [4]), 1580 to 5010 nM; in assay [2] (setting [5]), 1580 to 5010 nM; in assay [3], 1580 to 5010 nM.

With `N[C@H]1CS(=O)(=O)c2cc(F)c(C(=O)NCc3ccccc3)cc2N(Cc2ccc(F)cc2)C1=O` [Example 134, (3R)-3-amino-N-benzyl-8-fluoro-5-[(4-fluorophenyl)methyl]-1,1,4-trioxo-2,3,4,5-tetrahydro-1λ^6,5-benzothiazepine-7-carboxamide hydrochloride], the EC50 in assay [1], in assay [2] (setting [4]), in assay [2] (setting [5]) and in assay [3] was below 1580 nM in each case.

In the case of `N[C@H]1CS(=O)(=O)c2ccc(C(=O)N[C@@H]3CC3(F)F)cc2N(Cc2ccc(C3CC3)cc2)C1=O` [Example 159, (3R)-3-amino-5-[(4-cyclopropylphenyl)methyl]-N-[(1R)-2,2-difluorocyclopropyl]-1,1,4-trioxo-2,3,4,5-tetrahydro-1λ^6,5-benzothiazepine-7-carboxamide], the EC50 in assay [1] is below 1580 nM; in assay [2] (setting [4]), 1580 to 5010 nM; in assay [2] (setting [5]), 1580 to 5010 nM; in assay [3] it was below 1580 nM.

Turning to `N[C@H]1CS(=O)(=O)c2cc(F)c(C(=O)NCC3CCOCC3)cc2N(Cc2ccc(F)cc2)C1=O` [Example 139, (3R)-3-amino-8-fluoro-5-[(4-fluorophenyl)methyl]-N-[(oxan-4-yl)methyl]-1,1,4-trioxo-2,3,4,5-tetrahydro-1λ^6,5-benzothiazepine-7-carboxamide hydrochloride], the EC50 in assay [1] was above 5010 nM; in assay [2] (setting [4]), 1580 to 5010 nM; in assay [2] (setting [5]), 1580 to 5010 nM; in assay [3] it was 1580 to 5010 nM.

As to `N[C@H]1CS(=O)(=O)c2cc(Cl)c(C(=O)N[C@@H]3CC3(F)F)cc2N(Cc2ccc(Cl)cc2)C1=O` [Example 175, (3R)-3-amino-8-chloro-5-[(4-chlorophenyl)methyl]-N-[(1R)-2,2-difluorocyclopropyl]-1,1,4-trioxo-2,3,4,5-tetrahydro-1λ^6,5-benzothiazepine-7-carboxamide], the EC50 in assay [1] is 1580 to 5010 nM; in assay [2] (setting [4]), 1580 to 5010 nM; in assay [2] (setting [5]), above 5010 nM; in assay [3], below 1580 nM.

Regarding `COc1ccc(CN2C(=O)[C@@H](N)CS(=O)(=O)c3cc(F)c(C(=O)NCC4CCOCC4)cc32)cc1` [Example 142, (3R)-3-amino-8-fluoro-5-[(4-methoxyphenyl)methyl]-N-[(oxan-4-yl)methyl]-1,1,4-trioxo-2,3,4,5-tetrahydro-1λ^6,5-benzothiazepine-7-carboxamide], the EC50 in assay [1] was above 5010 nM; in assay [2] (setting [4]), 1580 to 5010 nM; in assay [2] (setting [5]) it was 1580 to 5010 nM; in assay [3], above 5010 nM.

With `N[C@H]1CS(=O)(=O)c2ccc(C(=O)N[C@@H]3CC3(F)F)cc2N(Cc2ccc(OC(F)F)cc2)C1=O` [Example 160, (3R)-3-amino-N-[(1R)-2,2-difluorocyclopropyl]-5-{[4-(difluoromethoxy)phenyl]methyl}-1,1,4-trioxo-2,3,4,5-tetrahydro-1λ^6,5-benzothiazepine-7-carboxamide], the EC50 is 1580 to 5010 nM in assay [1], above 5010 nM in assay [2] (setting [4]), above 5010 nM in assay [2] (setting [5]) and below 1580 nM in assay [3].

Take `N[C@H]1CS(=O)(=O)c2ccc(C(=O)N[C@@H]3CC3(F)F)cc2N(Cc2ccc(Cl)cc2)C1=O` [Example 158, (3R)-3-amino-5-[(4-chlorophenyl)methyl]-N-[(1R)-2,2-difluorocyclopropyl]-1,1,4-trioxo-2,3,4,5-tetrahydro-1λ^6,5-benzothiazepine-7-carboxamide]: the EC50 is 1580 to 5010 nM in assay [1], below 1580 nM in assay [2] (setting [4]), 1580 to 5010 nM in assay [2] (setting [5]) and 1580 to 5010 nM in assay [3].

Take `N[C@H]1CS(=O)(=O)c2ccc(C(=O)NCCC(F)(F)F)cc2N(Cc2ccc(Cl)cc2)C1=O` [Example 155, (3R)-3-amino-5-[(4-chlorophenyl)methyl]-1,1,4-trioxo-N-(3,3,3-trifluoropropyl)-2,3,4,5-tetrahydro-1λ^6,5-benzothiazepine-7-carboxamide]: the EC50 in assay [1] was below 1580 nM; in assay [2] (setting [4]) it was 1580 to 5010 nM; in assay [2] (setting [5]), 1580 to 5010 nM; in assay [3], below 1580 nM.

The record behind these values is patent publication US10472341B2, “Bicyclic tetrahydrothiazepine derivatives useful for the treatment of neoplastic and/or infectious diseases” (APEIRON BIOLOGICS AG, priority 2015, dated 2019).
